# Experimental data taken from patent US20030199581A1, “Boswellin compositions enhanced with 3-beta-acetyl-11-keto-beta-boswellic acid ("AKBA") industrial manufacture and uses” (priority 2002, published 2003).
# Like-named read-outs stand apart in the source and are kept apart here.
# How the values were obtained:
# DU145 (prostate cancer) = assay: 3-day MTT assay, DU145 cells; format: cell-based, human; details: DU145, 195 ng/ml phytochemical alone
# Experimental: (§1) Biological activities of the materials produced as described in Examples 1 to 5 were determined using cultured cells. The IC50s of Boswellin (“BA1”), AKBA enriched peracetylated boswellin (“BA2”) and AKBA enriched boswellin (“BA3”) in various human and murine prostate, leukemia, melanoma, lung and breast cancer cell lines were determined. The IC50s were determined using a standard MTT assay using CEM (lymphoblastic leukemia), Du 145 (prostate cancer), PC-3 (prostate cancer), LNCaP (prostate cancer), Sk-MEL2 (human melanoma), P388D1 (murine leukemia), K562 (human mycloid leukemia), A549 (human lung cancer), MCF-7 (human breast cancer), B16F (murine melanoma) cancer cell lines (Table 2).
# (§2) DU145, PC-3 and CEM cells in culture we studied to determine whether other natural products have synergistic effects with AKBA enriched boswellin. Methods for culturing the cells are described above in Example 6. To different samples of cells, we added AKBA enriched boswellin in concentrations from 0 to 120 μg/ml, resveratrol in concentrations from 0 to 3125 ng/ml, baicalin in concentrations from 0 to 3125 ng/ml and licochalcone A in concentrations from 0 to 800 μg/ml. In analogous concentrations combinations of AKBA enriched boswellin and resveratrol, baicalin and licochalcone A were studied. Cell survival was measured using the MTT assay described above.
# [1] = test system: CEM (lymphoblastic leukemia); assay: 3-day MTT assay, CEM cells; format: cell-based, human; details: 195 ng/ml phytochemical alone
# Experimental: as §1, §2
# PC-3 (prostate cancer) = assay: 3-day MTT assay, PC-3 cells; format: cell-based, human
# Experimental: as §2, with “The IC50s were determined using a standard MTT assay using CEM (lymphoblastic leukemia), Du 145 (prostate cancer), PC-3 (prostate cancer), LNCaP (prostate cancer), Sk-MEL2 (human melanoma), P388D1 (murine leukemia), K562 (human mycloid leukemia), A549 (human lung cancer), MCF-7 (human breast cancer), B16F (murine melanoma) cancer cell lines (Table 2). […] DU145,” for “DU145,”
# LNCaP cells = assay: Growth inhibition by cell counting, LNCaP cells; format: cell-based; details: Homo sapiens, 100 μg/ml, read-out: growth inhibition as compared to controls
# Experimental: DU145 and LNCaP cells were obtained from ATCC. The cells were grown in Eagle's MEM supplemented with 1 mM sodium pyruvate, 0.1 mM glutamine, 1.5 g/l sodium bicarbonate, and 10% fetal bovine serum. A confluent plate of cells contained approximately 2×10^6 DU145cells and 10^6 LNCaP cells.
# The test drug dissolved in DMSO at a concentration of 100 mg/ml was added to 6 test plates and to control plates. Two control and two drug plates each were harvested with addition of 1 ml/plate of trypsin-EDTA at 24, 48, and 72 hrs and counted by […]. The trypsinized plates were incubated for 3 min at 37° C., and 5 ml DMEM was added to each plate. Cells were collected in 15 ml tubes, and 2 ml of each cell suspension was added to 20 ml Isoton and counted.
structure (smiles),measurement,setting,value
O=C(O)[C@H]1O[C@@H](Oc2cc3oc(-c4ccccc4)cc(=O)c3c(O)c2O)[C@H](O)[C@@H](O)[C@@H]1O [baicalin],% cell survival (conc. phytochemical),DU145 (prostate cancer),78 (195 ng/ml baicalin) %
same,% cell survival (conc. phytochemical),[1],85 (195 ng/ml baicalin) %
same,% cell survival (conc. phytochemical),"PC-3 (prostate cancer); PC-3, 12 ng/ml phytochemical alone",93 (12 ng/ml baicalin) %
O=c1c(-c2ccc(O)cc2)coc2cc(O)cc(O)c12 [Genistein],inhibition at 100 µg/mL,LNCaP cells; 24 h,32%
same,inhibition at 100 µg/mL,LNCaP cells; 48 h,49.4%
same,inhibition at 100 µg/mL,LNCaP cells; 72 h,60.8%
Oc1ccc(C=Cc2cc(O)cc(O)c2)cc1 [resveratrol],% cell survival (conc. phytochemical),DU145 (prostate cancer),89 (195 ng/ml resveratrol) %
same,% cell survival (conc. phytochemical),[1],85 (195 ng/ml resveratrol) %
C=CC(C)(C)c1cc(/C=C/C(=O)c2ccc(O)cc2)c(OC)cc1O [licochalcone A],% cell survival (conc. phytochemical),"PC-3 (prostate cancer); PC-3, 3.1 μg/ml phytochemical alone",98 (3.1 μg/ml licochalcone A) %
